ChEMBL document CHEMBL5154644, “Design, Synthesis, and Structure-Activity Relationship Optimization of Pyrazolopyrimidine Amide Inhibitors of Phosphoinositide 3-Kinase γ (PI3Kγ)” (J Med Chem, 2022)

Experiments:
[1] = Hepatic clearance in Sprague-Dawley rat by LC-MS/MS analysis; type: ADME; settings: in vivo
[2] = target: CYP3A4 (Homo sapiens, UniProt P08684); experiment: in vitro; settings: human liver microsomes, probe midazolam
Description: Time dependent inhibition of CYP3A4 in human liver microsomes at 10 uM using midazolam as substrate preincubated for 30 mins in presence of NADPH by LC/MS/MS analysis relative to control

[3] = target: T1, Phosphatidylinositol 4,5-bisphosphate 3-kinase catalytic subunit gamma isoform (Homo sapiens, UniProt P48736); experiment: Inhibition of PI3Kgamma in SDF-1alpha stimulated human whole blood assessed as reduction in phospho-AKT kinase activity preincubated for 1 hr followed by SDF-1alpha stimulation and measured after 2 mins by flow cytometric analysis; type: tissue-based
[4] = target: T1, Phosphatidylinositol 4,5-bisphosphate 3-kinase catalytic subunit gamma isoform; experiment: Inhibition of PI3Kgamma (unknown origin) using PIP2 as substrate preincubated for 1 hr followed by substrate addition and measured after 60 mins in presence of ATP by ADP-glo assay
[5] = species: Homo sapiens; experiment: Selectivity ratio of IC50 for inhibition of PI3Kbeta (unknown origin) to IC50 for inhibition of PI3Kgamma (unknown origin)
[6] = target: Phosphatidylinositol 4,5-bisphosphate 3-kinase catalytic subunit beta isoform (Homo sapiens, UniProt P42338); experiment: Inhibition of PI3Kbeta (unknown origin) using PIP2 as substrate preincubated for 1 hr followed by substrate addition and measured after 60 mins in presence of ATP by ADP-glo assay
[7] = target: T2, Phosphatidylinositol 4,5-bisphosphate 3-kinase catalytic subunit delta isoform (Homo sapiens, UniProt O00329); experiment: Inhibition of PI3Kdelta (unknown origin) using PIP2 as substrate preincubated for 1 hr followed by substrate addition and measured after 60 mins in presence of ATP by ADP-glo assay
T2 sequence (O00329 whole entry): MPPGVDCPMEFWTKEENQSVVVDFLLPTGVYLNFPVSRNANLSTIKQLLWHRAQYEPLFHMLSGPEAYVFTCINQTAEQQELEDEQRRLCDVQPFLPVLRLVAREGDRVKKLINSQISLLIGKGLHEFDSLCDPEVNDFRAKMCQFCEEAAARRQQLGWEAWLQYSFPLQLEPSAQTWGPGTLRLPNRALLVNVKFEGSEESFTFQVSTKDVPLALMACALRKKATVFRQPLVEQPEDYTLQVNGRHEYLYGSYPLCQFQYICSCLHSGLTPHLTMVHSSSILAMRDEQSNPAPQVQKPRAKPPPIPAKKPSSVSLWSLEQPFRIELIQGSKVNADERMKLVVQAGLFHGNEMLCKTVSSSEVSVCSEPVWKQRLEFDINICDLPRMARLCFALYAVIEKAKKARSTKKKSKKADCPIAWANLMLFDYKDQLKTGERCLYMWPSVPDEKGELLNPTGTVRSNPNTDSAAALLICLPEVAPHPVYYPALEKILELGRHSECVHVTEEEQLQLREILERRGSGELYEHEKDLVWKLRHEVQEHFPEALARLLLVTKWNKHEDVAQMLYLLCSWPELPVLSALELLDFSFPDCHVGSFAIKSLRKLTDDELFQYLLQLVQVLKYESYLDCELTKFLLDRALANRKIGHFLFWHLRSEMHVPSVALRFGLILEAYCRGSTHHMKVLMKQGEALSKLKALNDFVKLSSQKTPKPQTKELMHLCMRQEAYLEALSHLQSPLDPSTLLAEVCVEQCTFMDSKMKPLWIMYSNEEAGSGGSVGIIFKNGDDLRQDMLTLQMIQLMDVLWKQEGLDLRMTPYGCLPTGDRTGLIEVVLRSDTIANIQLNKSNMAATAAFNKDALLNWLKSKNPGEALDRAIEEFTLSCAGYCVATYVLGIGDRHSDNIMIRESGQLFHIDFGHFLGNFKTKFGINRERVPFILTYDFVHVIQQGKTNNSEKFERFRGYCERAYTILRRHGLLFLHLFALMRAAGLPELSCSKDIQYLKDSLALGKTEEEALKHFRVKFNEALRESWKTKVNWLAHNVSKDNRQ

[8] = Metabolic stability in rat hepatocyte assessed as intrinsic clearance per 10^8 cells at 0.5 uM by LC-MS/MS analysis; type: ADME, cell-based; settings: hepatocytes
[9] = target: T1, Phosphatidylinositol 4,5-bisphosphate 3-kinase catalytic subunit gamma isoform; experiment: Inhibition of PI3Kgamma (unknown origin) in […] stimulated human THP-1 cells assessed as reduction in Akt phosphorylation level at Ser473 residue preincubated for 60 mins followed by rhMCP-1 stimulation and measured after 2 mins by AlphaLisa assay; type: cell-based
[10] = species: Homo sapiens; experiment: Selectivity ratio of IC50 for inhibition of PI3Kalpha (unknown origin) to IC50 for inhibition of PI3Kgamma (unknown origin)
[11] = target: Phosphatidylinositol 4,5-bisphosphate 3-kinase catalytic subunit alpha isoform (Homo sapiens, UniProt P42336); experiment: Inhibition of PI3Kalpha (unknown origin) using PIP2 as substrate preincubated for 1 hr followed by substrate addition and measured after 60 mins in presence of ATP by ADP-glo assay
[12] = Metabolic stability in human hepatocytes assessed as intrinsic clearance per 10^6 cells at 0.5 uM by LC-MS/MS analysis; type: ADME, cell-based, Hepatocyte; settings: read-out: CLH
[13] = species: Homo sapiens; experiment: Selectivity ratio of IC50 for inhibition of PI3Kdelta (unknown origin) to IC50 for inhibition of PI3Kgamma (unknown origin)
[14] = target: hERG (Homo sapiens, UniProt Q12809); experiment: Inhibition of human ERG at 10 uM by patch clamp assay relative to control; type: toxicity
Sequence of hERG (Q12809 whole entry): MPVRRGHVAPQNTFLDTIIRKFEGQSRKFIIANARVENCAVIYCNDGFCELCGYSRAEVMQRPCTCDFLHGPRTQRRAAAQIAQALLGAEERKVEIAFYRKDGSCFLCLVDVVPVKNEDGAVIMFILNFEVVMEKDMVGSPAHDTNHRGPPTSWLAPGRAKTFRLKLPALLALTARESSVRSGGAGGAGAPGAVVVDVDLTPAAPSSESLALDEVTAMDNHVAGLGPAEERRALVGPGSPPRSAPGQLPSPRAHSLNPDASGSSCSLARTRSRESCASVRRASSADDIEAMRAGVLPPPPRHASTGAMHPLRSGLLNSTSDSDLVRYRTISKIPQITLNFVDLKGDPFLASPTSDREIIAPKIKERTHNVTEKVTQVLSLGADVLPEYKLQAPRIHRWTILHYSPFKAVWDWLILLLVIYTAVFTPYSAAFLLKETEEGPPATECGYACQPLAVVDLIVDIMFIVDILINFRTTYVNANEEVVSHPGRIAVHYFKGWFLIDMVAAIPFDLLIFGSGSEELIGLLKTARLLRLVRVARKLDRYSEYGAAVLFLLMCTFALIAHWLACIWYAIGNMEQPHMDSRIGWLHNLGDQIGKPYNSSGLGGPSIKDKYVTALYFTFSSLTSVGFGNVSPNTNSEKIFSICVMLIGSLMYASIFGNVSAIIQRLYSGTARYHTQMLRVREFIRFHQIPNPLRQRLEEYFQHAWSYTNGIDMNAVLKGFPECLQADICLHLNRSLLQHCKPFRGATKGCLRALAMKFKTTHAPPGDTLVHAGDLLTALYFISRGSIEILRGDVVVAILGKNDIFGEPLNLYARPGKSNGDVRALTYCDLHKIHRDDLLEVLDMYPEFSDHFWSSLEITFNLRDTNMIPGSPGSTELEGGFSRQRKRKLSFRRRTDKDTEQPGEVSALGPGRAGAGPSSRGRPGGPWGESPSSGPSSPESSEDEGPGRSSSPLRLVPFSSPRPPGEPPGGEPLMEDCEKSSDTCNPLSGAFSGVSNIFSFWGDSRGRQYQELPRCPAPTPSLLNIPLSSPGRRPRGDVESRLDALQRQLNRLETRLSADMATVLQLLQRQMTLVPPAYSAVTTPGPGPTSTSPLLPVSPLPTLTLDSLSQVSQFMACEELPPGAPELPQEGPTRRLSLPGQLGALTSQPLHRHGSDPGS

T1 sequence (P48736 whole entry, canonical isoform): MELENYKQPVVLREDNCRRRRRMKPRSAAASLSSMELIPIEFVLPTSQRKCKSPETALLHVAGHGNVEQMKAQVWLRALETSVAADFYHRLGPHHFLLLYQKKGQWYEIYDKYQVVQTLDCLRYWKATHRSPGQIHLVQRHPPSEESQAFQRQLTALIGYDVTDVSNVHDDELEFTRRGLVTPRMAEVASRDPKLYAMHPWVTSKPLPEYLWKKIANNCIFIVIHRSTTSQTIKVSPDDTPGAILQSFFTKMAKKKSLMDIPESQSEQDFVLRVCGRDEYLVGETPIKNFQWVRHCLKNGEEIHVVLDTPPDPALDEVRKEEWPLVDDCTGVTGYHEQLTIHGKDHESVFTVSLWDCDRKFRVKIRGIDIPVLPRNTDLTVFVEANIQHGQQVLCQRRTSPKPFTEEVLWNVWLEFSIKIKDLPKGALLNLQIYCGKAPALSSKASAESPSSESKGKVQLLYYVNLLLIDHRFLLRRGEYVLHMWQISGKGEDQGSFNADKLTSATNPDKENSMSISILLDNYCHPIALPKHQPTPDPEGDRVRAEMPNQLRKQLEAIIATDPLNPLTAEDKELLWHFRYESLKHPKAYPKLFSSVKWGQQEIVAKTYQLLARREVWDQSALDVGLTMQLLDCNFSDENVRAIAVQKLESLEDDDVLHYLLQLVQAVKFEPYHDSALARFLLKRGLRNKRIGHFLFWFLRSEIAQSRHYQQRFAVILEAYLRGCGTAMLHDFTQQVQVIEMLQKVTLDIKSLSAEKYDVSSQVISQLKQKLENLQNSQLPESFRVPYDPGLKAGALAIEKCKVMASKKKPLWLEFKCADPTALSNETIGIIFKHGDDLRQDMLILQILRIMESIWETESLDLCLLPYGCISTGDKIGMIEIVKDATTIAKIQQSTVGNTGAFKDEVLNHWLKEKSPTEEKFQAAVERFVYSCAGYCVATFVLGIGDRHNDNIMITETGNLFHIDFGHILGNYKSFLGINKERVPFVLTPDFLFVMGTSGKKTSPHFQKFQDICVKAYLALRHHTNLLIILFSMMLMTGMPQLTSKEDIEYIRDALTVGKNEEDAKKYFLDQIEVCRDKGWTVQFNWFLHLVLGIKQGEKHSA
Sequence of Phosphatidylinositol 4,5-bisphosphate 3-kinase catalytic subunit beta isoform (P42338 whole entry, canonical isoform): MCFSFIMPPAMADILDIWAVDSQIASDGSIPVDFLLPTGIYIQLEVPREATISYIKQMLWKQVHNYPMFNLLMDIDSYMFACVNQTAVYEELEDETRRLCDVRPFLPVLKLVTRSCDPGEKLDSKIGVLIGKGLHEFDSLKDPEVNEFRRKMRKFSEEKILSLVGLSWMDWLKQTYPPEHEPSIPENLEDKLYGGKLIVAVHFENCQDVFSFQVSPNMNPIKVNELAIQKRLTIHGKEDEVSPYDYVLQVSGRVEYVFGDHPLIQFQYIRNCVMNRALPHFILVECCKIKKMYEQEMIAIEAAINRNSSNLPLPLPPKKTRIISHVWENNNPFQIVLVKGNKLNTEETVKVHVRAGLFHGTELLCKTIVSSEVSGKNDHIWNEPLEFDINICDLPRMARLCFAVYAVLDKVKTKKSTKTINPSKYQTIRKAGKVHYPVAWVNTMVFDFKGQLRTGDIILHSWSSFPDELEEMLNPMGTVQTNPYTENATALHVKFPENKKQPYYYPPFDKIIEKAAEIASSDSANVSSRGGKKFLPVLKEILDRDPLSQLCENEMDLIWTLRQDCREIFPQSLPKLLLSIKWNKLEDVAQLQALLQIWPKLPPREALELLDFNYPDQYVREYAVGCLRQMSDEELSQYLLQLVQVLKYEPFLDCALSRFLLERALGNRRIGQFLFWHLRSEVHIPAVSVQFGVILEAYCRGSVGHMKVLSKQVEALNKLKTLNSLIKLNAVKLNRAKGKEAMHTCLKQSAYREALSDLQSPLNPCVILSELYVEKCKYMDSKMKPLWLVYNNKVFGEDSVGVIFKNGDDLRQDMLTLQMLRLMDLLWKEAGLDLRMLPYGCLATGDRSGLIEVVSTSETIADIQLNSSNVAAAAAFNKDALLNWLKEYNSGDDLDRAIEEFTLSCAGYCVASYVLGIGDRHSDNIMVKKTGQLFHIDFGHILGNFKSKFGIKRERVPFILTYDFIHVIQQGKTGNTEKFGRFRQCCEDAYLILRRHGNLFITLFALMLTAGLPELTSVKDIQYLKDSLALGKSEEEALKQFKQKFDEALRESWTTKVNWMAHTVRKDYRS
Sequence of Phosphatidylinositol 4,5-bisphosphate 3-kinase catalytic subunit alpha isoform (P42336 whole entry, canonical isoform): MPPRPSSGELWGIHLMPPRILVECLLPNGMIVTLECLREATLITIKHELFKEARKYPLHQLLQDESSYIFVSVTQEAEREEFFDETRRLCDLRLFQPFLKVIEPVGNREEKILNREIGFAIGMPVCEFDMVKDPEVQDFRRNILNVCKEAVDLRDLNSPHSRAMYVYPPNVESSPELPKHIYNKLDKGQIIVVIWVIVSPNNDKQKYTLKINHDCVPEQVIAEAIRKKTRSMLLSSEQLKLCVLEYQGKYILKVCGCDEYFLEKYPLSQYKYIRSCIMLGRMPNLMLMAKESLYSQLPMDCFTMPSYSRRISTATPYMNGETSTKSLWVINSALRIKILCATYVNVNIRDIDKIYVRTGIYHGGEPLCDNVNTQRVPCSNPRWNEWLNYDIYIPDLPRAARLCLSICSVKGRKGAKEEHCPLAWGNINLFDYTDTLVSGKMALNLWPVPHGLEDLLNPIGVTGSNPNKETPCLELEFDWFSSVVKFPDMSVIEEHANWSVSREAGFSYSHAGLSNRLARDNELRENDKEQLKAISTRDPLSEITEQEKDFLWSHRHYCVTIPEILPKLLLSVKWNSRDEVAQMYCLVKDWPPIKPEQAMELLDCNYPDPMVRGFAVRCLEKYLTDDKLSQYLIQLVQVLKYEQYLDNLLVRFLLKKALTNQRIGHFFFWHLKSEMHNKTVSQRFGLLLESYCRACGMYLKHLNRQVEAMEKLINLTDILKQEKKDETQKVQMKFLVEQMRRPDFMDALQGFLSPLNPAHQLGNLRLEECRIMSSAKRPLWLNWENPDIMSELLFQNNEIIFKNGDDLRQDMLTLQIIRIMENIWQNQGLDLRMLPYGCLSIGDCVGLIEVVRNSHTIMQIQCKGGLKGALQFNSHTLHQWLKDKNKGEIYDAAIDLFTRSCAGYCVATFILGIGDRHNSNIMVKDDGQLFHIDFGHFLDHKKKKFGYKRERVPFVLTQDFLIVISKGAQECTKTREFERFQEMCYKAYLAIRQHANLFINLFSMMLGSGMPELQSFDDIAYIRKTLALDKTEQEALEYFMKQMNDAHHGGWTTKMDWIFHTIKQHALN
Sequence of CYP3A4 (P08684 whole entry, canonical isoform): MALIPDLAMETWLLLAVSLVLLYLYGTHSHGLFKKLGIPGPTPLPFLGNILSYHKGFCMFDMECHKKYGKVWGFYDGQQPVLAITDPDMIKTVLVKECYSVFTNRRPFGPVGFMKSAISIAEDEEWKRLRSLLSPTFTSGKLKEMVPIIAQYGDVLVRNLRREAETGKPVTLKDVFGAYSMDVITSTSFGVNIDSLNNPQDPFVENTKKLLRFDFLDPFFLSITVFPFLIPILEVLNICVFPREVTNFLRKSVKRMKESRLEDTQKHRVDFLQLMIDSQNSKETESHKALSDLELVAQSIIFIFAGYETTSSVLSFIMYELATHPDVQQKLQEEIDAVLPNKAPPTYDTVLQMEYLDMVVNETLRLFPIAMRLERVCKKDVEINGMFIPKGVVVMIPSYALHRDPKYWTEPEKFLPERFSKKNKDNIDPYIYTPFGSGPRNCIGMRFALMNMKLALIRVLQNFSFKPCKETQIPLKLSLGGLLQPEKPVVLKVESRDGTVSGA

| SMILES | CLH [1] [mL/min/kg] | inhibition at 30 min, 10 µM [2] [%] | IC50 [3] [nM] | IC50 [4] [nM] | Ratio IC50 [5] | IC50 [6] [nM] | IC50 [7] [nM] | hepatocyte intrinsic clearance [8] [µL/min] | IC50 [9] [nM] | Ratio IC50 [10] | IC50 [11] [nM] | hepatocyte CLint at 0.5 µM [12] [µL/min/1e6 cells] | Ratio IC50 [13] | inhibition at 10 µM [14] [%] |
| --- | --- | --- | --- | --- | --- | --- | --- | --- | --- | --- | --- | --- | --- | --- |
| C[C@@H](C1CC1)N1Cc2cc(-c3ccn4nc(N)c(C(=O)N[C@H]5CC[C@](C)(O)CC5)c4n3)cc(NS(C)(=O)=O)c2C1=O | 30 | 12 | 420 | 0.9 | 8410 | 7570 | 268 | 8.24 | 22 | 362 | 326 | 3.39 | – | – |
| C[C@H](N1Cc2cc(-c3ccn4nc(N)c(C(=O)N[C@@H](CO)C5CC5)c4n3)cc(Cl)c2C1=O)C(F)(F)F | – | – | 600 | 3.1 | – | – | 4640 | 2.98 | 83 | > 3140 | > 10000 | 3.18 | 1460 | – |
| Cc1cc(-c2ccn3nc(N)c(C(=O)N[C@H](C)CO)c3n2)cc2c1C(=O)N([C@@H](C)C1CC1)C2 | 15 | 19 | – | 3.5 | – | – | 1280 | < 1.2 | 186 | 205 | 713 | 1.31 | 415 | – |
| C[C@@H](C1CC1)N1Cc2cc(-c3ccn4nc(N)c(C(=O)N[C@@H](CO)C5CC5)c4n3)cc(NS(C)(=O)=O)c2C1=O | – | 35 | 260 | 0.8 | – | – | 991 | < 1.2 | 33 | 1470 | 1200 | 4.09 | – | – |
| C[C@H](N1Cc2cc(-c3ccn4nc(N)c(C(=O)N[C@@H](CO)C5CC5)c4n3)cc(NS(C)(=O)=O)c2C1=O)C(F)(F)F | – | – | 1300 | 3.5 | – | – | 825 | 2.48 | 72 | 474 | 1640 | 6.31 | 238 | – |
| C[C@H](N1Cc2cc(-c3ccn4nc(N)c(C(=O)N[C@H]5CC[C@@](C)(O)CC5)c4n3)cc(NS(C)(=O)=O)c2C1=O)C(F)(F)F | – | – | 800 | 3.2 | – | – | 146 | 3.38 | 31 | 61 | 194 | 2.44 | 46 | – |
| C[C@H](N1Cc2cc(-c3ccn4nc(N)c(C(=O)N[C@@H](CO)C5CC5)c4n3)cc(OC(F)F)c2C1=O)C(F)(F)F | – | – | 600 | 3.4 | – | – | 419 | 8.28 | 68 | 385 | 1320 | 7.17 | 122 | – |

Now from value to compound, other results behind:

| CLH [1] [mL/min/kg] | inhibition at 30 min, 10 µM [2] [%] | IC50 [3] [nM] | IC50 [4] [nM] | Ratio IC50 [5] | IC50 [6] [nM] | IC50 [7] [nM] | hepatocyte intrinsic clearance [8] [µL/min] | IC50 [9] [nM] | Ratio IC50 [10] | IC50 [11] [nM] | hepatocyte CLint at 0.5 µM [12] [µL/min/1e6 cells] | Ratio IC50 [13] | SMILES | inhibition at 10 µM [14] [%] |
| --- | --- | --- | --- | --- | --- | --- | --- | --- | --- | --- | --- | --- | --- | --- |
| 21.7 | 6 | 750 | 2.8 | 3040 | 8550 | 1790 | < 1.2 | 72 | 733 | 2060 | 4.05 | – | C[C@@H](C1CC1)N1Cc2cc(-c3ccn4nc(N)c(C(=O)N[C@@H](CO)C5CC5)c4n3)cc(OC(F)(F)F)c2C1=O | – |
| 68.3 | 16 | – | 4.8 | – | – | 835 | < 1.2 | 67 | 170 | 808 | 2.03 | 175 | CCS(=O)(=O)c1cc(-c2ccn3nc(N)c(C(=O)NC4CC4)c3n2)cc2c1C(=O)N([C@@H](C)C1CC1)C2 | – |
| 8.3 | 20 | – | 3.6 | – | – | 1860 | < 1.2 | 58 | 411 | 1480 | 1.67 | 518 | C[C@@H](C1CC1)N1Cc2cc(-c3ccn4nc(N)c(C(=O)NC5CC5)c4n3)cc(OC(F)(F)F)c2C1=O | – |
| – | – | 1300 | 2.5 | – | – | 3980 | 1.69 | 80 | > 3970 | > 10000 | 13.3 | 1580 | C[C@H](N1Cc2cc(-c3ccn4nc(N)c(C(=O)N[C@@H](CO)C5CC5)c4n3)cc(C3CC3)c2C1=O)C(F)(F)F | – |
| 15 | 18 | 510 | 3.1 | 9400 | 29400 | 3110 | 8.42 | 48 | 611 | 1910 | 4.35 | – | C[C@@H](C1CC1)N1Cc2cc(-c3ccn4nc(N)c(C(=O)N[C@@H](CO)C5CC5)c4n3)cc(OC(F)F)c2C1=O | 21 |
| 33 | 12 | – | 1.8 | – | – | 698 | 4.59 | 156 | 464 | 833 | 6.21 | 388 | Cc1cc(-c2ccn3nc(N)c(C(=O)NC4COC4)c3n2)cc2c1C(=O)N([C@@H](C)C1CC1)C2 | – |
| 73.3 | 4 | – | 1.8 | – | – | 769 | 2.73 | 110 | 568 | 995 | < 1.2 | 439 | Cc1cc(-c2ccn3nc(N)c(C(=O)N[C@H]4CNC(=O)C4)c3n2)cc2c1C(=O)N([C@@H](C)C1CC1)C2 | – |
| 76.7 | 46 | – | 2.3 | – | – | 1590 | 82.7 | 292 | 1580 | 3660 | 29.3 | 668 | Cc1cc(-c2ccn3nc(N)c(C(=O)NC4CCC4)c3n2)cc2c1C(=O)N([C@@H](C)C1CC1)C2 | – |
| 88.3 | 4 | – | 2.4 | – | – | 560 | < 1.2 | 43 | 148 | 351 | < 1.2 | 236 | C[C@@H](C1CC1)N1Cc2cc(-c3ccn4nc(N)c(C(=O)NC5CC5)c4n3)cc(S(C)(=O)=O)c2C1=O | – |
| 5 | 7 | – | 3.6 | – | – | 1950 | < 1.2 | 103 | 443 | 1580 | < 1.2 | 547 | C[C@@H](C1CC1)N1Cc2cc(-c3ccn4nc(N)c(C(=O)NC5CC5)c4n3)cc(C(F)(F)F)c2C1=O | – |
